Consider four molecules from patent publication US20250049693A1, “METHOD FOR AMPLIFYING EXPRESSION OF TRANSPORTER-RELATED GENE IN EPIDERMAL CELLS” (J-Network, Inc., priority 2023, published 2025).

Data set [1] relates to Normal human epidermal keratinocytes (NHEKs). Put plainly: Evaluation of cellular uptake action of vitamin C: hydroquinone cytotoxicity, neutral red assay. In kind it is cell-based. The following applies: then 400 μM hydroquinone 24 hours.
Protocol: This evaluation was performed by quantifying the cytotoxicity of hydroquinone (HQ) when a diacylglycerol PEG adduct, vitamin C, and hydroquinone were added to epidermal cells.
Normal human epidermal keratinocytes (NHEKs) were seeded on a 96-well plate at a cell density of 2.0×10^4 cells/well using HuMedia-KG2 medium and cultured under the conditions of 37° C. and 5% CO: for 24 hours.
Thereafter, using HuMedia-KB2 medium, a sample to which 50 μM of PEG-23 glycerol distearate (GDS23) was added and a sample to which GDS23 was not added were respectively cultured under the conditions of 37° C. and 5% CO: for 24 hours.
Subsequently, the samples were washed with PBS (−), and the GDS23-added samples and the GDS23 non-added samples were respectively cultured in the following six media for 24 hours. • HuMedia-KB2 medium containing 0 μM of ascorbic acid (AsA) • HuMedia-KB2 medium containing 1 μM of ascorbic acid (AsA) • HuMedia-KB2 medium containing 5 μM of ascorbic acid (AsA) • HuMedia-KB2 medium containing 10 μM of ascorbic acid (AsA) • HuMedia-KB2 medium containing 50 μM of ascorbic acid (AsA) • HuMedia-KB2 medium containing 100 μM of ascorbic acid (AsA)
The control (no addition of any of GDS23, AsA, and HQ) was cultured only in HuMedia-KB2 medium.
For data set [2] the test system is unchanged. Briefly: Evaluation of cellular uptake action of cystine: hydroquinone cytotoxicity, neutral red assay. The following applies: then 400 μM hydroquinone 24 hours. In kind it is cell-based. The procedure: From the test results of (1) and (2) described above, it was confirmed that the expression of the SLC7A11 genes was enhanced by the application of the diacylglycerol PEG adduct to epidermal cells, and thus the production of the protein, which is the xCT transporter encoded thereby, was enhanced. Therefore, the cellular uptake action of cystine was actually evaluated. This evaluation was performed by quantifying the cytotoxicity of hydroquinone (HQ) when a diacylglycerol PEG adduct, cystine, and hydroquinone were added to epidermal cells.
Normal human epidermal keratinocytes (NHEKs) were seeded on a 96-well plate at a cell density of 2.0×10^4 cells/well using HuMedia-KG2 medium and cultured under the conditions of 37° C. and 5% CO2 for 24 hours.
Thereafter, using HuMedia-KB2 medium, a sample to which 50 μM of PEG-23 glycerol distearate (GDS23) was added and a sample to which GDS23 was not added were respectively cultured under the conditions of 37° C. and 5% CO2 for 24 hours.
Subsequently, the samples were washed with PBS (−), and the GDS23-added samples and the GDS23 non-added samples were respectively cultured in the following three media for 30 hours. The cysteine added to the medium is oxidized in the medium or between cells to be converted into cystine, which is a dimer, and is incorporated into the cells as cystine. • HuMedia-KB2 medium containing 0 μM of cysteine (Cys) • HuMedia-KB2 medium containing 10 μM of cysteine (Cys) • HuMedia-KB2 medium containing 50 μM of cysteine (Cys)
Further, the cells were washed with PBS (−) and cultured in HuMedia-KB2 medium containing 400 μM of hydroquinone (HQ) for 24 hours.
The control (no addition of any of GDS23, Cys, and HQ) was cultured only in HuMedia-KB2 medium.
Thereafter, the cell viability was measured by the neutral red assay. The cell viability was calculated for each of the GDS23-added samples and the GDS23 non-added samples, taking the cell viability of the control as 100%.

Another data set relates to SVCT2 gene. Put plainly: Amplification of mRNA expression of SVCT2 gene (quantitative real-time PCR). In kind it is cell-based, human. Particulars: NHEKs; 100 μM; culture 30 hr; corrected with GAPDH, control = 1. The procedure: (§1) A test for confirming the amplification of mRNA expression of each transporter-related gene in epidermal cell was performed.
(§2) Normal human epidermal keratinocytes (NHEKs) were seeded on a 96-well plate at a cell density of 2.0×10^4cells/well using HuMedia-KG2 medium (manufactured by Kurabo Industries Ltd.), and cultured under the conditions of 37° C. and 5% CO2 for 24 hours.
(§3) Thereafter, a diacylglycerol PEG adduct was added thereto using HuMedia-KB2 medium (manufactured by Kurabo Industries Ltd.), and each was cultured under the conditions of 37° C. and 5% CO2 for a predetermined time. Table 1 represents the target gene, the types of diacylglycerol PEG adduct added, the adding amount, and the culture time. A control (no addition) was also cultured under the same conditions.
(§4) After the cells were cultured for each predetermined time, RNA was extracted from the cells of each sample and control. The extracted RNA was reverse-transcribed to prepare cDNA, and the mRNA of the target gene was quantified by quantitative real-time PCR expression analysis. […]
(§5) In the analysis, the mRNA expression level of each target gene was corrected with the value of the expression level of GAPDH, which is an internal standard in the same sample, and the correction value of the sample was calculated as a relative expression level when the correction value of the control was set to 1.

In a further data set the test system is SLC7A11 gene. Briefly: Amplification of mRNA expression of SLC7A11 gene (quantitative real-time PCR). The following applies: NHEKs; 100 μM; culture 24 hr; corrected with GAPDH, control = 1. In kind it is cell-based, human. The protocol:
as §1, §2, §3, §4, §5
Background: Real-time PCR tracks product formation cycle by cycle.

The subject of a further data set is GSR gene. Put plainly: Amplification of mRNA expression of GSR gene (quantitative real-time PCR). The following applies: NHEKs, corrected with GAPDH, control = 1. In kind it is cell-based, human. The protocol:
as §1, §2, §3, §4, §5

The next data set concerns ABCC1 gene. Briefly: Amplification of mRNA expression of ABCC1 gene (quantitative real-time PCR). The following applies: NHEKs, corrected with GAPDH, control = 1. In kind it is cell-based, human. The protocol:
as §1, §2, §3, §4, §5

The next data set relates to SVCT2 protein. Put plainly: Test for enhanced production of SVCT2 proteins (Western blotting). The following applies: NHEKs, 50 μM, 24 hours. In kind it is cell-based, human. The protocol:
A test for confirming the enhanced production of proteins encoded by the SVCT2 genes was performed using Western blotting.
Normal human epidermal keratinocytes (NHEKs) were seeded on a 96-well plate at a cell density of 1.0×10^5 cells/well using HuMedia-KG2 medium and cultured under the conditions of 37° C. and 5% CO2 for 24 hours.
Thereafter, 50 μM of PEG-23 glycerol distearate (GDS23) was added thereto using HuMedia-KB2 medium, and the cells were cultured under the conditions of 37° C. and 5% CO2 for 24 hours. A control (no addition) was cultured only in HuMedia-KB2 medium.
After culturing, Western blotting was applied. First, proteins were extracted from the cells using […] containing 10% mercaptoethanol. The protein extract solution was subjected to electrophoresis using a polyacrylamide gel, and the proteins were transferred to a membrane by a semi-dry method. The amount of the SVCT2 protein was corrected with the amount of GAPDH, which is an internal standard in the same sample, and the correction value of the sample was calculated with the correction value of the control set to 1.
On the technique in general: Immunoblotting shows a protein as a band on a membrane.

On to `O=C1O[C@H]([C@@H](O)CO)C(O)=C1O` [ascorbic acid, reference compound], for which, in data set [1] (GDS23 non-added samples, ascorbic acid 5 to 100 μM, 24 hours, versus ascorbic acid non-added sample), the “effect of ascorbic acid on the cytotoxicity caused by hydroquinone (cell viability)” value is recorded as “almost no effect”.
On to `N[C@@H](CS)C(=O)O` [cysteine, reference compound], for which the “effect of cysteine (cystine) on the cytotoxicity caused by hydroquinone (cell viability)” value in data set [2] (GDS23 non-added samples, cysteine 10 μM and 50 μM, 30 hours, versus cysteine non-added sample) is “almost no effect”.
Regarding PEG-12 glycerol dimyristate [GDM12], the “relative expression level of SVCT2 gene” value in the data set with SVCT2 gene is given as “about 1.4 times that of the control”. In addition, the “relative expression level of SLC7A11 gene” value in the data set on SLC7A11 gene is given as “about 1.4 times that of the control”. Besides, the “relative expression level of GSR gene” value in the data set with GSR gene (100 μM, culture 30 hr) is listed as “about 1.5 times that of the control”. In addition, the “relative expression level of ABCC1 gene” value with ABCC1 gene (100 μM, culture 30 hr) was “about 1.3 times that of the control”.
As to PEG-23 glycerol distearate [GDS23], in the data set on GSR gene (50 μM, culture 24 hr), the “relative expression level of GSR gene” value is given as “about 1.8 times that of the control”. Besides, the “relative expression level of ABCC1 gene” value with ABCC1 gene (50 μM, culture 24 hr) is “about 2.1 times that of the control”. Moreover, in the data set with SVCT2 protein (FIG. 11), the “SVCT2 protein band (Western blot image)” value is “increase”. The “amount of the SVCT2 protein” value in the data set on SVCT2 protein (Western blot, corrected with GAPDH, control = 1) is “about 1.4 times that in the control sample”. The “cytotoxicity by hydroquinone (cell viability), GDS23-added versus GDS23 non-added samples” value in data set [1] (50 μM GDS23 24 hours, ascorbic acid 0-100 μM 24 hours) was “significantly reduced”; in data set [2] (50 μM GDS23 24 hours, cysteine 0-50 μM 30 hours), “significantly reduced”. Besides, in data set [1] (50 μM GDS23 24 hours, ascorbic acid 1-100 μM 24 hours), the “cell viability of ascorbic acid-added samples versus ascorbic acid non-added sample among GDS23-added samples” value is reported as “higher”. Also, the “cell viability of cysteine-added samples versus cysteine non-added sample among GDS23-added samples” value in data set [2] (50 μM GDS23 24 hours, cysteine 10 or 50 μM 30 hours) was “higher”.
